Test results published in patent US9193978B2, “Production of alkenes by combined enzymatic conversion of 3-hydroxyalkanoic acids” (Scientist of Fortune, S.A., priority 2010, dated 2015).

Columns and labels:
[1] = molecular target: T1, Streptococcus mitis MDP decarboxylase, SEQ ID NO: 10 (Streptococcus mitis, UniProt A0ACG7RFV4); assay: Kinetic parameters of isobutene production from 3-phosphonoxyisovalerate (GC); format: biochemical; conditions: pH 7.5, 37° C., 44 h, 40 mM ATP, 0-100 mM 3-phosphonoxyisovalerate
Protocol: The kinetic parameters of isobutene production were measured under the following conditions:
0-100 mM 3-phosphonoxyisovalerate
(§1) The pH was adjusted to 7.5
The reaction was initiated by addition of 1 mg of purified MDP decarboxylase from S. mitis (SEQ ID NO:10) to 0.5 ml of reaction mixture. The mixture was then incubated without shaking at 37° C. for 44 h in a sealed vial of 2 ml (Interchim).
(§2) One ml of the gaseous phase was collected and injected into a Varian 430-GC gas chromatograph equipped with an FID detector and a CP SilicaPlot column (Varian). Commercial isobutene was used as reference.

[2] = molecular target: T2, Picrophilus torridus MDP decarboxylase, SEQ ID NO: 1 (Picrophilus torridus, UniProt Q6KZB1); assay: Phosphotransferase activity (ADP release from 3-hydroxyisovalerate and ATP), pyruvate kinase/lactate dehydrogenase coupled assay; format: biochemical; conditions: 40° C., pH 7.0, 5 mM ATP, 0-50 mM HIV
T2 construct: His6 (inserted after the initiator methionine) (N); made in house; host or cells: Escherichia coli BL21(DE3)
T2 sequence (Q6KZB1 1-324): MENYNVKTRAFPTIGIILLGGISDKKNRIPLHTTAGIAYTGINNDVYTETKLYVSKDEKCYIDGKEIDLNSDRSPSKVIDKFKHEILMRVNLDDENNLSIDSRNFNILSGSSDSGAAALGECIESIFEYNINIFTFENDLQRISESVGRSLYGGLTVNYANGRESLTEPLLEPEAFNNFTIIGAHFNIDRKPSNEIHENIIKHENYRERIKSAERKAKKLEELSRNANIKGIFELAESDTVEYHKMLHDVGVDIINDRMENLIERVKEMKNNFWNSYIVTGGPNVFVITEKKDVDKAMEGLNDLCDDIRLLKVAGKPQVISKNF
Source text: FIG. 12: Isobutene production from 3-hydroxyisovalerate in the following assays: • Without enzyme • In the presence of S. mitis MDP decarboxylase (SEQ ID NO:10) • In the presence of Th. acidophilum MDP decarboxylase (SEQ ID NO:2) • In the presence of both Th. acidophilum (SEQ ID NO:2) and S. mitis (SEQ ID NO:10) enzymes.
(§3) The release of ADP that is associated with IBN production from HIV was quantified using the pyruvate kinase/lactate dehydrogenase coupled assay (FIG. 10). The MDP decarboxylases from P. torridus (SEQ ID NO:1), Th. Acidophilum (SEQ ID NO:2), S. infantarius (SEQ ID NO:7), S. mitis (SEQ ID NO:10) were evaluated for their ability to phosphorylate HIV, releasing ADP.
(§4) The studied enzymatic reaction was carried out under the following conditions at 40° C.:
(§5) 0.5 mM Phosphoenolpyruvate
(§6) 3 U/ml Lactate dehydrogenase
(§7) 0-50 mM 3-Hydroxyisovalerate (HIV)
(§8) The pH was adjusted to 7.0.
(§9) Each assay was started by addition of particular enzyme (at a concentration from 0.05 to 1 mg/ml) and the disappearance of NADH was monitored by following the absorbance at 340 nm.
(§10) Assays with MDP decarboxylases from the P. torridus phylum as well from the Streptococcus genus gave rise to a reproducible increase in ADP production in the presence of HIV.

[3] = molecular target: T3, Thermoplasma acidophilum MDP decarboxylase, SEQ ID NO: 2 (Thermoplasma acidophilum, UniProt Q9HIN1); assay: as above; format: biochemical; conditions: 40° C., pH 7.0, 5 mM ATP, 0-50 mM HIV
T3 construct: Th; His6 (inserted after the initiator methionine) (N); made in house; host or cells: Escherichia coli BL21(DE3)
T3 sequence (Q9HIN1 1-318): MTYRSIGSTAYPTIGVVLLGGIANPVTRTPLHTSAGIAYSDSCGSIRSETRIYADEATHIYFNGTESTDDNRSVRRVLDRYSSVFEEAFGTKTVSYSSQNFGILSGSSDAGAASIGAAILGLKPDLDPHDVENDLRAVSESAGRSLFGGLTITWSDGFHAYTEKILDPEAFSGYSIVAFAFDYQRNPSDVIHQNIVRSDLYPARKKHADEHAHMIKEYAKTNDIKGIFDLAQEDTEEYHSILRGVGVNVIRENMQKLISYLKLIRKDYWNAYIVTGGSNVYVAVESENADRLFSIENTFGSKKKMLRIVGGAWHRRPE
Protocol: as §3, §4, §5, §6, §7, §8, §9, §10

[4] = molecular target: T1, Streptococcus mitis MDP decarboxylase, SEQ ID NO: 10; assay: Effect of ATP on isobutene production from 3-phosphonoxyisovalerate (GC); format: biochemical; conditions: 10 mM ATP vs 0 mM ATP, 25 mM PIV, pH 7.5, 37° C., 26 h
Protocol: The assays of isobutene production were carried out under the following conditions:
0 mM ATP (assay No1 and No2)
10 mM ATP (assay No3 and No4)
25 mM 3-phosphonoxyisovalerate
as §1
The reaction was initiated by addition of 2 mg of purified MDP decarboxylase from S. mitis (SEQ ID NO:10) to 0.5 ml of reaction mixture. Control reactions were run in the absence of enzyme (assays No1 and No3).
The mixture was incubated without shaking at 37° C. for 26 h in a sealed vial of 2 ml (Interchim).
as §2

[5] = substrate: CC(C)(O)CC(=O)O; assay: Phosphotransferase activity (ADP release from 3-hydroxyisovalerate and ATP), pyruvate kinase/lactate dehydrogenase coupled assay; format: biochemical, Streptococcus infantarius; conditions: other: 40° C., pH 7.0, 5 mM ATP, 0-50 mM HIV
Protocol: as §3, §4, §5, §6, §7, §8, §9, §10

## CC(C)(CC(=O)O)OP(=O)(O)O [3-phosphonoxyisovalerate]
[1]
  Km: > 60 mM
  kcat: at least 1.3×10^−3 sec^−1

## CC(C)(O)CC(=O)O [3-hydroxyisovalerate]
[2]
  Km: 9.17 mM
[3]
  Km: 4.02 mM

## Nc1ncnc2c1ncn2[C@@H]1O[C@H](COP(=O)(O)OP(=O)(O)OP(=O)(O)O)[C@@H](O)[C@H]1O [ATP]
[4]
  increase of isobutene production from 3-phosphonoxyisovalerate (PIV) on addition of ATP: 120 fold

B1: Streptococcus infantarius MDP decarboxylase, SEQ ID NO: 7 (Streptococcus infantarius subsp. infantarius ATCC BAA-102) (protein)
chain: MDRKIVTVKSYANIAIIKYWGKADAAKMIPATSSISLTLENMFTTTSVSFLPDSASHDEFYINGVLQDDKEHAKISAIIDQYRGQRSEYVKVETSNNMPTAAGLSSSSSGLSALVKACNELFETGLTRAELAQKAKFASGSSSRSFFGPLAAWDKDSGEVYPVQTDLKLAMIMLVLSDSKKSISSREGMKRCVETSTTFADWVKQSEQDYKDMLGYLKNNDFERVGELTERNALAMHDTNTHANPPFNYLTEESYKAMEFVKQLRSEGEKCYFTMDAGPNVKVLCLEEDLERLTKRFEENYRVIVSRTKEL
[5]
  Km: 13.4 mM
  kcat: 0.03 s⁻¹
  kcat/Km: 2 M⁻¹ s⁻¹
